*1 amine or outer side, *2 acyl side, *3 side chain or, on linkers, in order; H or OH if unused. Where a SMILES comes first, the peptide text is derived from it. [ ]: non-standard residue; d: D form. X1 = C=C/C=C/C[C@@H](C)[C@@H](O)[C@@H](C(=O)[*:2])N(C)[*:1]; X3 = C[C@H](C/C=C/Cl)[C@@H](O)[C@@H](C(=O)[*:2])N(C)[*:1]; X2 = C[C@H](C/C=C/I)[C@@H](O)[C@@H](C(=O)[*:2])N(C)[*:1]; NMeL = CN[C@@H](CC(C)C)C(=O)O; NMeV = CN[C@H](C(=O)O)C(C)C; dNMeS = CN[C@H](CO)C(=O)O; Abu = CC[C@H](N)C(=O)O
Test system: concanavalin A-stimulated splenocytes
Test: Concanavalin A-stimulated splenocyte assay ([3H]thymidine incorporation)
Type: cell-based, BALB/c mice
Conditions: for potency in immunosuppression compared to cyclosporin A: FIG. 1, concanavalin A stimulated splenocyte assay
Description: Male BALB/c mice, at 5 to 7 weeks of age, were sacrificed by CO2 inhalation. Spleens were removed and dissociated by pushing through a nylon cell strainer. The splenocytes were washed in RPMI 1640/5% fetal calf serum (FCS) and pelleted at 400×g. Red blood cells were then lysed by resuspending the cell pellet in ACK lysis buffer (150 mM NH4Cl, 1 mM KHCO3, 0.1 mM EDTA, 3 mL per spleen) for 10 min at room temperature. After pelleting at 400×g, the cells were washed by resuspending in RPMI 1640/5% FCS and repelleting. The cell pellet was resuspended in RPMI 1640/5% FCS and again passed through a cell strainer to remove cell aggregates. The cells were then counted and adjusted to 2×10^6 cells/ml in RPMI 1640/10% FCS/50 μM 2-mercaptoethanol. Cell viability was assessed by Trypan blue staining. […] The cells were cultured in a 37° C. CO2 incubator for 2 days and then pulsed with 1 μCi of [^3H]thymidine for 6 hours. Cells were harvested onto filtermats with a TomTec 96 well plate harvester and lysed with H2O. The filtermat and scintillation fluid were sealed in a plastic sleeve. [^3H]thymidine incorporation was measured with a Wallac Trilux plate counter. Initial screens were done at a fixed value of 100 ng/ml test compound. IC50s were calculated from 7 point concentration-response curves using GraphPad software.

Row | Structure (SMILES) | IC50 (ng/mL), immunosuppressive activity of novel cyclosporin analogue compound | potency in immunosuppression compared to cyclosporin A
1 | C=C/C=C/C[C@@H](C)[C@@H](O)[C@H]1C(=O)N[C@@H](CC)C(=O)N(C)[C@H](CO)C(=O)N(C)[C@@H](CC(C)C)C(=O)N[C@@H](C(C)C)C(=O)N(C)[C@@H](CC(C)C)C(=O)N[C@@H](C)C(=O)N[C@H](C)C(=O)N(C)[C@@H](CC(C)C)C(=O)N(C)[C@@H](CC(C)C)C(=O)N(C)[C@@H](C(C)C)C(=O)N1C [Example 69, trans-cyclosporin diene-d2] (cyclo([X1][Abu][dNMeS][NMeL]V[NMeL]A[dA][NMeL][NMeL][NMeV])) | 4 ng/mL | 
2 | CC[C@@H]1NC(=O)[C@H]([C@H](O)[C@H](C)C/C=C/Br)N(C)C(=O)[C@H](C(C)C)N(C)C(=O)[C@H](CC(C)C)N(C)C(=O)[C@H](CC(C)C)N(C)C(=O)[C@@H](C)NC(=O)[C@H](C)NC(=O)[C@H](CC(C)C)N(C)C(=O)[C@H](C(C)C)NC(=O)[C@H](CC(C)C)N(C)C(=O)CN(C)C1=O [Example 19, trans-cyclosporin vinyl bromide] | 9 ng/mL | 
3 | CCON=C/C=C/C[C@@H](C)[C@@H](O)[C@H]1C(=O)N[C@@H](CC)C(=O)N(C)CC(=O)N(C)[C@@H](CC(C)C)C(=O)N[C@@H](C(C)C)C(=O)N(C)[C@@H](CC(C)C)C(=O)N[C@@H](C)C(=O)N[C@H](C)C(=O)N(C)[C@@H](CC(C)C)C(=O)N(C)[C@@H](CC(C)C)C(=O)N(C)[C@@H](C(C)C)C(=O)N1C [Example 58, cyclosporin oxime] | 42 ng/mL | 
4 | CC[C@@H]1NC(=O)[C@H]([C@H](O)[C@H](C)C/C=C/Cl)N(C)C(=O)[C@H](C(C)C)N(C)C(=O)[C@H](CC(C)C)N(C)C(=O)[C@H](CC(C)C)N(C)C(=O)[C@@H](C)NC(=O)[C@H](C)NC(=O)[C@H](CC(C)C)N(C)C(=O)[C@H](C(C)C)NC(=O)[C@H](CC(C)C)N(C)C(=O)CN(C)C1=O [Example 11, trans-deuterated cyclosporin vinyl chloride] |  | enhanced potency
5 | CC[C@@H]1NC(=O)[C@H]([C@H](O)[C@H](C)C/C=C/I)N(C)C(=O)[C@H](C(C)C)N(C)C(=O)[C@H](CC(C)C)N(C)C(=O)[C@H](CC(C)C)N(C)C(=O)[C@@H](C)NC(=O)[C@H](C)NC(=O)[C@H](CC(C)C)N(C)C(=O)[C@H](C(C)C)NC(=O)[C@H](CC(C)C)N(C)C(=O)CN(C)C1=O [Example 9, trans-deuterated cyclosporin vinyl iodide] | 7 ng/mL | enhanced potency
6 | C=C/C=C/C[C@@H](C)[C@@H](O)[C@H]1C(=O)N[C@@H](CC)C(=O)N(C)[C@H](CO)C(=O)N(C)[C@@H](CC(C)C)C(=O)N[C@@H](C(C)C)C(=O)N(C)[C@@H](CC(C)C)C(=O)N[C@@H](C)C(=O)N[C@H](C)C(=O)N(C)[C@@H](CC(C)C)C(=O)N(C)[C@@H](CC(C)C)C(=O)N(C)[C@@H](C(C)C)C(=O)N1C [Example 67, trans-cyclosporin diene] (cyclo([X1][Abu][dNMeS][NMeL]V[NMeL]A[dA][NMeL][NMeL][NMeV])) | 7 ng/mL | 
7 | CC[C@@H]1NC(=O)[C@H]([C@H](O)[C@H](C)CC=CCF)N(C)C(=O)[C@H](C(C)C)N(C)C(=O)[C@H](CC(C)C)N(C)C(=O)[C@H](CC(C)C)N(C)C(=O)[C@@H](C)NC(=O)[C@H](C)NC(=O)[C@H](CC(C)C)N(C)C(=O)[C@H](C(C)C)NC(=O)[C@H](CC(C)C)N(C)C(=O)CN(C)C1=O [Example 34, cyclosporin allylic fluoride] | 12 ng/mL | 
8 | CC[C@@H]1NC(=O)[C@H]([C@H](O)[C@H](C)C/C=C/I)N(C)C(=O)[C@H](C(C)C)N(C)C(=O)[C@H](CC(C)C)N(C)C(=O)[C@H](CC(C)C)N(C)C(=O)[C@@H](C)NC(=O)[C@H](C)NC(=O)[C@H](CC(C)C)N(C)C(=O)[C@H](C(C)C)NC(=O)[C@H](CC(C)C)N(C)C(=O)CN(C)C1=O [Example 6, cyclosporin vinyl iodide] | 11 ng/mL | 
9 | CC[C@@H]1NC(=O)[C@H]([C@H](O)[C@H](C)C/C=C/I)N(C)C(=O)[C@H](C(C)C)N(C)C(=O)[C@H](CC(C)C)N(C)C(=O)[C@H](CC(C)C)N(C)C(=O)[C@@H](C)NC(=O)[C@H](C)NC(=O)[C@H](CC(C)C)N(C)C(=O)[C@H](C(C)C)NC(=O)[C@H](CC(C)C)N(C)C(=O)[C@@H](CO)N(C)C1=O [Example 72, cyclosporin vinyl iodide] (cyclo([X2][Abu][dNMeS][NMeL]V[NMeL]A[dA][NMeL][NMeL][NMeV])) | 5 ng/mL | 
10 | CC[C@@H]1NC(=O)[C@H]([C@H](O)[C@H](C)CC=CC(F)(F)F)N(C)C(=O)[C@H](C(C)C)N(C)C(=O)[C@H](CC(C)C)N(C)C(=O)[C@H](CC(C)C)N(C)C(=O)[C@@H](C)NC(=O)[C@H](C)NC(=O)[C@H](CC(C)C)N(C)C(=O)[C@H](C(C)C)NC(=O)[C@H](CC(C)C)N(C)C(=O)CN(C)C1=O [Example 31, cyclosporin fluoride] | 38 ng/mL | 
11 | CC[C@@H]1NC(=O)[C@H]([C@H](O)[C@H](C)C/C=C/Cl)N(C)C(=O)[C@H](C(C)C)N(C)C(=O)[C@H](CC(C)C)N(C)C(=O)[C@H](CC(C)C)N(C)C(=O)[C@@H](C)NC(=O)[C@H](C)NC(=O)[C@H](CC(C)C)N(C)C(=O)[C@H](C(C)C)NC(=O)[C@H](CC(C)C)N(C)C(=O)[C@@H](CO)N(C)C1=O [Example 71, cyclosporin vinyl chloride] (cyclo([X3][Abu][dNMeS][NMeL]V[NMeL]A[dA][NMeL][NMeL][NMeV])) | 8 ng/mL | 

Source: patent US7511013B2, “Cyclosporin analogues and their pharmaceutical uses” (AMR Technology, Inc., priority 2004, dated 2009)
